Measurements: patent publication US11053204B2, “Pyrimidinyloxy benzene derivatives as herbicides” (FMC Corporation, priority 2015, dated 2021)

Tests used:
Assay type in all cases: in vivo
[1] = system: galium (catchweed bedstraw, Galium aparine); test: Test A postemergence, visual injury rating
Summary of the method: (§1)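 Visual injury scored 0–100 (100 = complete control) against untreated controls about 10 days after treatment in a greenhouse. Test chemicals, formulated with surfactant in non-phytotoxic solvent, were sprayed on soil preemergence or on 2-10 cm, one- to two-leaf plants postemergence.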

[2] = system: barnyardgrass (Echinochloa crus-galli); test: Test A postemergence, visual injury rating; conditions: 0 to 100 scale, 0 is no effect, 100 is complete control, approximately 10 days
Summary of the method: as §1

[3] = system: blackgrass (Alopecurus myosuroides); test: Test A postemergence, visual injury rating
Summary of the method: as §1

[4] = system: crabgrass, large (large crabgrass, Digitaria sanguinalis); test: Test C preemergence, plant response rating; conditions: Preemergence
Summary of the method: (§2)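 Pre-emergence: seeds sown in loam soil–sand blend or silt loam and sprayed with test chemicals in a non-phytotoxic solvent mixture with surfactant. Post-emergence: plants 2 to 18 cm (1- to 4-leaf stage) in peat-based potting medium, same formulation. Greenhouse 13 to 15 d; visual rating 0 (no effect) to 100 (complete control) versus controls.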

[5] = system: oilseed rape (Brassica napus); test: Test C preemergence, plant response rating; conditions: Preemergence
Summary of the method: as §2

[6] = system: nutsedge, yellow (yellow nutsedge, Cyperus esculentus); test: Test C preemergence, plant response rating; conditions: Preemergence
Summary of the method: as §2

soybean (Glycine max) = test: Test C preemergence, plant response rating; conditions: Preemergence
Summary of the method: as §2

[7] = system: ryegrass, Italian (Italian ryegrass, Lolium multiflorum); test: Test C preemergence, plant response rating; conditions: Preemergence
Summary of the method: as §2

[8] = system: lambsquarters (Chenopodium album); test: Test C preemergence, plant response rating; conditions: Preemergence
Summary of the method: as §2

[9] = system: waterhemp (common waterhemp, Amaranthus rudis); test: Test C preemergence, plant response rating; conditions: Preemergence
Summary of the method: as §2

corn (Zea mays) = test: Test C preemergence, plant response rating; conditions: Preemergence
Summary of the method: as §2

[10] = system: foxtail, giant (giant foxtail, Setaria faberii); test: Test C preemergence, plant response rating; conditions: Preemergence
Summary of the method: as §2

[11] = system: ragweed (common ragweed, Ambrosia elatior); test: Test C preemergence, plant response rating; conditions: Preemergence
Summary of the method: as §2

[12] = system: morningglory (Ipomoea coccinea); test: Test C preemergence, plant response rating; conditions: Preemergence
Summary of the method: as §2

[13] = system: wheat (winter wheat, Triticum aestivum); test: Test C preemergence, plant response rating; conditions: Preemergence
Summary of the method: as §2

[14] = system: blackgrass (Alopecurus myosuroides); test: Test C preemergence, plant response rating; conditions: Preemergence
Summary of the method: as §2

[15] = system: velvetleaf (Abutilon theophrasti); test: Test C preemergence, plant response rating; conditions: Preemergence
Summary of the method: as §2

[16] = 31 g ai/ha, 0 to 100 scale (0 no effect, 100 complete control)
[17] = 125 g ai/ha, 0 to 100 scale, 0 is no effect, 100 is complete control, approximately 10 days

Which “Galium plant response rating” value [1, 16] does the source give for `N#CC(CCCC(F)(F)F)c1ccccc1Oc1ncc(Cl)cn1` (centres unmarked) [Compound 144] here?
Its value is 40.

And the “Galium plant response rating” value [1, 17]?
The value was 100.

And the “Barnyardgrass plant response rating” value ([2]; 31 g ai/ha)?
Its value is 40.

And the “Barnyardgrass plant response rating” value ([2]; 125 g ai/ha)?
The value was 90.

And the “Blackgrass plant response rating” value [3, 16]?
The value was 50.

What about the “Blackgrass plant response rating” value [3, 17] of the same compound?
The value was 90.

What about the “Plant response rating, Crabgrass, Large” value ([4]; 125 g ai/ha, scale of 0 to 100) of the same compound?
Its value is 100.

And the “Plant response rating, Crabgrass, Large” value ([4]; 16 g ai/ha, scale 0 to 100)?
The value was 85.

And the “Plant response rating, Crabgrass, Large” value ([4]; 31 g ai/ha, scale 0 to 100)?
The value was 98.

And the “Plant response rating, Crabgrass, Large” value ([4]; 62 g ai/ha, scale 0 to 100)?
The value was 100.

What about the “Plant response rating, Oilseed Rape” value ([5]; 125 g ai/ha, scale of 0 to 100) of the same compound?
Its value is 90.

What about the “Plant response rating, Oilseed Rape” value ([5]; 31 g ai/ha, scale 0 to 100) of the same compound?
The value was 0.

And the “Plant response rating, Oilseed Rape” value ([5]; 62 g ai/ha, scale 0 to 100)?
The value was 5.

And the “Plant response rating, Nutsedge, Yellow” value ([6]; 125 g ai/ha, scale of 0 to 100)?
The value was 70.

What about the “Plant response rating, Nutsedge, Yellow” value ([6]; 31 g ai/ha, scale 0 to 100) of the same compound?
The value was 20.

And the “Plant response rating, Nutsedge, Yellow” value ([6]; 62 g ai/ha, scale 0 to 100)?
The value was 60.

What about the “Plant response rating, Soybean” value (soybean (Glycine max); 125 g ai/ha, scale of 0 to 100) of the same compound?
The value was 60.

What about the “Plant response rating, Soybean” value (soybean (Glycine max); 31 g ai/ha, scale 0 to 100) of the same compound?
Its value is 0.

And the “Plant response rating, Soybean” value (soybean (Glycine max); 62 g ai/ha, scale 0 to 100)?
The value was 30.

And the “Plant response rating, Ryegrass, Italian” value ([7]; 125 g ai/ha, scale of 0 to 100)?
The value was 60.

What about the “Plant response rating, Ryegrass, Italian” value ([7]; 31 g ai/ha, scale 0 to 100) of the same compound?
The value was 0.

And the “Plant response rating, Ryegrass, Italian” value ([7]; 62 g ai/ha, scale 0 to 100)?
The value was 0.

What about the “Plant response rating, Lambsquarters” value ([8]; 125 g ai/ha, scale of 0 to 100) of the same compound?
Its value is 75.

What about the “Plant response rating, Lambsquarters” value ([8]; 31 g ai/ha, scale 0 to 100) of the same compound?
Its value is 40.

What about the “Plant response rating, Lambsquarters” value ([8]; 62 g ai/ha, scale 0 to 100) of the same compound?
Its value is 65.

And the “Plant response rating, Waterhemp” value ([9]; 125 g ai/ha, scale of 0 to 100)?
The value was 100.

What about the “Plant response rating, Waterhemp” value ([9]; 31 g ai/ha, scale 0 to 100) of the same compound?
Its value is 98.

What about the “Plant response rating, Waterhemp” value ([9]; 62 g ai/ha, scale 0 to 100) of the same compound?
Its value is 98.

And the “Plant response rating, Corn” value (corn (Zea mays); 125 g ai/ha, scale of 0 to 100)?
The value was 30.

And the “Plant response rating, Corn” value (corn (Zea mays); 16 g ai/ha, scale 0 to 100)?
Its value is 0.

And the “Plant response rating, Corn” value (corn (Zea mays); 31 g ai/ha, scale 0 to 100)?
Its value is 0.

What about the “Plant response rating, Corn” value (corn (Zea mays); 62 g ai/ha, scale 0 to 100) of the same compound?
The value was 5.

What about the “Plant response rating, Foxtail, Giant” value ([10]; 125 g ai/ha, scale of 0 to 100) of the same compound?
The value was 100.

What about the “Plant response rating, Foxtail, Giant” value ([10]; 31 g ai/ha, scale 0 to 100) of the same compound?
Its value is 85.

And the “Plant response rating, Foxtail, Giant” value ([10]; 62 g ai/ha, scale 0 to 100)?
Its value is 100.

And the “Plant response rating, Ragweed” value ([11]; 125 g ai/ha, scale of 0 to 100)?
Its value is 10.

And the “Plant response rating, Ragweed” value ([11]; 31 g ai/ha, scale 0 to 100)?
The value was 0.

What about the “Plant response rating, Ragweed” value ([11]; 62 g ai/ha, scale 0 to 100) of the same compound?
The value was 0.

What about the “Plant response rating, Morningglory” value ([12]; 125 g ai/ha, scale of 0 to 100) of the same compound?
Its value is 20.

What about the “Plant response rating, Morningglory” value ([12]; 31 g ai/ha, scale 0 to 100) of the same compound?
The value was 0.

And the “Plant response rating, Morningglory” value ([12]; 62 g ai/ha, scale 0 to 100)?
Its value is 10.

What about the “Plant response rating, Wheat” value ([13]; 125 g ai/ha, scale of 0 to 100) of the same compound?
Its value is 5.

And the “Plant response rating, Wheat” value ([13]; 62 g ai/ha, scale 0 to 100)?
Its value is 0.

And the “Plant response rating, Blackgrass” value ([14]; 125 g ai/ha, scale of 0 to 100)?
Its value is 30.

What about the “Plant response rating, Blackgrass” value ([14]; 16 g ai/ha, scale 0 to 100) of the same compound?
The value was 5.

What about the “Plant response rating, Blackgrass” value ([14]; 31 g ai/ha, scale 0 to 100) of the same compound?
The value was 10.

What about the “Plant response rating, Blackgrass” value ([14]; 62 g ai/ha, scale 0 to 100) of the same compound?
The value was 40.

And the “Plant response rating, Velvetleaf” value ([15]; 125 g ai/ha, scale of 0 to 100)?
The value was 45.

What about the “Plant response rating, Velvetleaf” value ([15]; 31 g ai/ha, scale 0 to 100) of the same compound?
Its value is 0.

And the “Plant response rating, Velvetleaf” value ([15]; 62 g ai/ha, scale 0 to 100)?
Its value is 15.
